From patent publication US20110046147A1, “17BETA-HYDROXYSTEROID DEHYDROGENASE TYPE 1 INHIBITORS FOR THE TREATMENT OF HORMONE-RELATED DISEASES” (UNIVERSITAT DES SAARLANDES, priority 2007, published 2011)

Legend:
17β-HSD1 = biological target: T1, 17β-HSD1 (Homo sapiens, UniProt P14061); experiment: Inhibition of 17β-HSD1 (estrone to estradiol, radio-HPLC); format: biochemical; details: for IC50: human placenta enzyme, 500 nM estrone, NADH 500 μM; for Selectivity IC50 (17β-HSD2)/IC50 (17β-HSD1): ratio of IC50 values
T1 construct: In both cases, human placenta served as the enzyme source; from tissue; host or cells: human placenta
T1 sequence (P14061 1-328): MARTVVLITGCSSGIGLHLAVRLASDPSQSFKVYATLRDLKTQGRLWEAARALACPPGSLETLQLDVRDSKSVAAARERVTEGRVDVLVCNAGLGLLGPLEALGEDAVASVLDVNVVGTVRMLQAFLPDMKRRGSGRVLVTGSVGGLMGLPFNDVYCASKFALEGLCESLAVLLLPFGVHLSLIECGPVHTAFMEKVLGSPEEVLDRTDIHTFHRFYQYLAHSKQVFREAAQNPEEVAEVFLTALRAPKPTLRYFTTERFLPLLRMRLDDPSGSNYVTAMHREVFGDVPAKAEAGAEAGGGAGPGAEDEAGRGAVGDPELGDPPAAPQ
Method: In the 17β-HSD1 test, NADH is employed as a cosubstrate at a final concentration of 500 μM in order to avoid the product inhibition occurring with NADPH. The enzyme preparation is diluted with test buffer to such an extent that the control conversion is 10 to maximally 20% (about 1:650). As the substrate, estrone in a final concentration of 500 nM is used, of which 3 nM is tritiated. 2,4,6,7-[^3H]estrone is purchased from Perkin-Elmer, Boston. The inhibitor is added as a solution in DMSO (control: pure DMSO without inhibitor; the final concentration of DMSO in the assay is 1% in all cases).
(§1) After the reaction, the substrate and product are extracted by partitioning with ether, separated by chromatography (HPLC) and quantified by means of radiodetection.

17β-HSD2 = biological target: T2, 17β-HSD2 (Homo sapiens, UniProt P37059); experiment: Inhibition of 17β-HSD2 (estradiol to estrone, radio-HPLC); format: biochemical; details: human placenta microsome fraction, 500 nM estradiol, NAD+ 1500 μM
T2 construct: from tissue; host or cells: human placenta, microsome fraction
T2 sequence (P37059 1-387): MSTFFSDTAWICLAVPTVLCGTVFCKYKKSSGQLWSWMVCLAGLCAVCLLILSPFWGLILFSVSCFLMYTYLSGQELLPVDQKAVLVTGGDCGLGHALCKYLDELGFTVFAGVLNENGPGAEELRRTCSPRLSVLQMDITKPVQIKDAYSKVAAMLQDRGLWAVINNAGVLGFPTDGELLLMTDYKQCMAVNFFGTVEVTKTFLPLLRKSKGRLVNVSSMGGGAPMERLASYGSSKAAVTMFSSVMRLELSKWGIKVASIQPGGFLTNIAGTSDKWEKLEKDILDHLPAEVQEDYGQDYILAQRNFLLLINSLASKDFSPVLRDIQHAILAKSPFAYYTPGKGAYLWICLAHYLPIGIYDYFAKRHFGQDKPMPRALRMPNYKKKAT
Method: Determination of the inhibitory activity of the potential inhibitors: Inhibition of 17β-HSD1 and 17β-HSD2: In both cases, human placenta served as the enzyme source (Lin, S.-X. et al., J. Biol. Chem., 267: 16182-16187 (1992)).
In the 17β-HSD2 test, the natural cosubstrate NAD^+ is employed at a final concentration of 1500 μM. The microsome fraction is diluted in test buffer, so that a control conversion of 20 to 30% results (about 1:350). As the substrate, estradiol in a final concentration of 500 nM is used, of which 3 nM is tritiated. 2,4,6,7-[^3H]estradiol is also purchased from Perkin-Elmer, Boston. The inhibitor is added as a solution in DMSO (control: pure DMSO without inhibitor; the final concentration of DMSO in the assay is […]). After the addition of the substrate, incubation is performed at 37° C. for 20 minutes. The reaction is quenched by the addition of HgCl2 (final concentration of HgCl2: 0.166 mM).
as §1

Structure (SMILES) | inhibition of 17β-HSD1 at a concentration of 1 μM (in words) (17β-HSD1) | IC50 (17β-HSD1) [nM] | Selectivity IC50 (17β-HSD2)/IC50 (17β-HSD1) (17β-HSD1) | IC50 (17β-HSD2) [nM]
Oc1ccc(-c2cnc(-c3ccc(O)cc3)s2)cc1 [Compound 21, 4,4′-(1,3-Thiazole-2,5-diyl)diphenol] | do not show any inhibition | – | – | –
Oc1ccc(-c2ccsc2-c2ccc(O)cc2)cc1 [Compound 27, 4,4′-Thiene-2,3-diyldiphenol] | do not show any inhibition | – | – | –
Oc1ccc(-c2ccc(-c3ccc(O)cc3)s2)cc1 [Compound 30, 4,4′-Thiene-2,5-diyldiphenol] | do not show any inhibition | – | – | –
Oc1cccc(-c2ccc(-c3cccc(O)c3)s2)c1 [Compound 31, 3,3′-Thiene-2,5-diyldiphenol] | – | 110 | 6.8 | 750
Oc1ccc(-c2csc(-c3cccc(O)c3)c2)cc1 [Compound 33, 3-[4-(4-Hydroxyphenyl)-2-thienyl]phenol] | – | 70 | 18 | 1270
Oc1cccc(-c2csc(-c3cccc(O)c3)c2)c1 [Compound 34, 3,3′-Thiene-2,4-diyldiphenol] | – | 170 | 3.3 | 560
Oc1cccc(-c2nnc(-c3cccc(O)c3)o2)c1 [Compound 35, 3,3′-(1,3,4-Oxadiazole-2,5-diyl)diphenol] | do not show any inhibition | – | – | –
Oc1cccc(-c2nnc(-c3cccc(O)c3)s2)c1 [Compound 36, 3,3′-(1,3,4-Thiadiazole-2,5-diyl)diphenol] | – | 510 | – | –
COc1ccc(-c2nsc(-c3cccc(O)c3)n2)cc1 [Compound 38, 3-[3-(4-Methoxyphenyl)-1,2,4-thiadiazole-5-yl]phenol] | – | 820 | – | –
Oc1ccc(-c2nsc(-c3ccc(O)cc3)n2)cc1 [Compound 39, 4,4′-(1,2,4-Thiadiazole-3,5-diyl)diphenol] | do not show any inhibition | – | – | –
Oc1ccc(-c2nsc(-c3cccc(O)c3)n2)cc1 [Compound 40, 3-[3-(4-Hydroxyphenyl)-1,2,4-thiadiazole-5-yl]phenol] | – | 360 | 6.1 | 2200
Oc1ccc(-c2cccc(-c3cccc(O)c3)c2)cc1 [Compound 43, [1,1′;3′,1″]Terphenyl-4,3″-diol] | – | 1410 | 2.2 | 3100
Oc1ccc(-c2ccc(-c3cccc(O)c3)cc2)cc1 [Compound 44, [1,1′;4′,1″]Terphenyl-4,3″-diol] | – | 240 | 19 | 4500
Oc1cccc(-c2ccc(-c3ccc(O)c(O)c3)s2)c1 [Compound 46, 4-[5-(3-Hydroxyphenyl)-2-thienyl]benzene-1,2-diol] | – | 800 | 2.1 | 1640
Oc1cccc(-c2ccc(-c3cc(F)c(O)c(F)c3)s2)c1 [Compound 48, 2,6-Difluoro-4-[5-(3-hydroxyphenyl)-2-thienyl]phenol] | – | 50 | 4.6 | 230
Oc1cccc(-c2ccc(-c3ccc(O)c(C(F)(F)F)c3)s2)c1 [Compound 49, 4-[5-(3-Hydroxyphenyl)-2-thienyl]-2-(trifluoromethyl)phenol] | – | 40 | – | –
Oc1cccc(-c2ccc(-c3cccc(F)c3)s2)c1 [Compound 50, 3-[5-(3-Fluorophenyl)-2-thienyl]phenol] | – | 530 | – | –
CS(=O)(=O)Nc1cccc(-c2ccc(-c3cccc(O)c3)s2)c1 [Compound 51, N-{3-[5-(3-Hydroxyphenyl)-2-thienyl]phenyl}methanesulfonamide] | – | 520 | – | –
Oc1cccc(-c2ccc(-c3ccccc3)s2)c1 [Compound 52, 3-(5-Phenyl-2-thienyl)phenol] | – | 340 | 6.9 | 2340
Oc1cccc(-c2ccc(-c3ccc(F)cc3)s2)c1 [Compound 54, 3-[5-(4-Fluorophenyl)-2-thienyl]phenol] | – | 720 | – | –
